Results: US8569361B1, “Aliphatic amino acid biosynthesis inhibitors and a method of synthesizing the same” (priority 2012, dated 2013)
Values after ≈ are worked out from the molar mass of the structure shown.

How the values were obtained:
yeast cells [1] = assay: Reversal assay: amino acids/metabolites reversing the antifungal activity at MIC level; format: cell-based, Saccharomyces cerevisiae
Experimental: Performing reversal assay: The reversal assay according to the embodiments herein is performed by the following steps in general: First the yeast strain is grown in presence of minimum inhibitory concentrations of the compounds to be tested. Then different concentrations of amino acids or metabolite intermediates are added to reverse the inhibitory effect of the test compounds. Then again the growth is checked and the minimum concentration of the metabolite or amino acids required for reversing the inhibitory effect is determined.
An experiment was designed for finding the metabolite that reverses the antifungal activity of the test compound.
With respect to FIG. 3, a cell suspension containing 1.5×10^5 yeast/ml was prepared in RPMI medium (1.2×) enriched by 2% glucose. […] 80 μl of this suspension was added to each well of a 96 well micro plate in the second row. Subsequently, two fold dilutions of reversing metabolite were prepared in the first row of the same microplate and 20 μl of each dilution was added to the related well of the second row. The plate was incubated at 30° C. overnight. Following an overnight incubation, the plate was checked for any visible growth of the strain. In case of any growth, the reversing metabolite was considered for further analysis.
In this test, all the amino acids, nucleic acids and intermediate metabolites of citric acid cycle were tested separately.
For all the compounds the mixture of mediators was evaluated. After observing that the compound was reversed, each of the mediating materials was tested separately. Reversal assay test has been done for all of the amino acids like glycine, alanine, leucine, isoleucine and valine.
Row G indicates a compound B in the absence of amino acids and cells. Row H is control cell.

ILV5 = assay: Semi-quantitative RT-PCR expression analysis of ilv5; format: cell-based, Saccharomyces cerevisiae BY4741; settings: sub-lethal dose, 4 hours treatment; actin loading control
Experimental: (§1) A semi quantitative RT-PCR analysis was used to investigate any possible effect of new antifungal compounds on the expression level of candidate gene targets.
(§2) The RNA samples were prepared by using a commercial kit i.e. RNA easy mini kit, QIAGEN, Germany. A beads cell disrupter i.e. Micro Smash™, Tomy, Japan was used during the cell lysis process. All RNA preparation steps were performed according to the manufacturer's instructions.
(§3) 1 microgram of total RNA was used in cDNA synthesis reaction. A commercial kit i.e. first strand cDNA Synthesis Kit, Fermentas, USA was used for cDNA synthesis. Total cDNA was prepared using random hexamer primer and all steps were according to the manufacturer's instructions. A typical reaction was performed as table 1 below.
(§4) RT-PCR analysis was carried out to examine the effect of new antifungal compounds on the expression level of genes involved in aliphatic amino acids biosynthesis. Three genes, ilv2, ilv3 and ilv5 were chosen for further analysis. RNA samples were isolated from the yeast cells exposed to sub-lethal or sub-inhibitory concentrations of new antifungal compounds and following a cDNA preparation. RT-PCR was performed using the gene specific primers.
(§5) RT-PCR products were visualized by electrophoresis on agarose gel and staining by ethidium bromide.
(§6) An overnight culture of yeast Saccharomyces cerevisiae BY4741 was prepared. […]

yeast cells [2] = assay: Minimum Inhibitory Concentration (MIC) by micro serial dilution in 96 well plate; format: cell-based; settings: Saccharomyces cerevisiae, 48 hours incubation
Experimental: Two fold serial dilutions of the compounds to be tested according to the embodiments herein were prepared in 96 well plates. 40 μl of appropriate test compound dilution was added to 160 μl of culture medium and the plate was incubated at 30° C. The culture medium is Yeast Peptone Dextrose agar (YPD) containing 10^3 yeast cells. The growth of yeast cells was monitored for 24 hr and 48 hr. Fluorouracil was used as a positive control and Dimethyl sulfoxide (DMSO-control solvent) was used as negative control. The minimum concentration of the test compound A which inhibits the fungal growth was defined as MIC. MIC level is defined as the minimum concentration of the compound which prevents the growth of pathogen. […]
After providing a serial dilution in the second row, 20 μl of the wells of the second row was transformed to the wells of first row and final volume of the wells of first row was changed to 100 μl. Finally, a surrounding part of each plate was covered with parafilm and was incubated under 37 degree of centigrade. the results were read out After 24 hours and 48 hours. […]
As a result of the growth of the fungus the medium is becoming cloudy. […] For defining the MIC, as well as the sample, positive control i.e. an approved antifungal drug like fluorouracil were measured. A solution control and a negative control i.e. only the fungal suspension were measured. […]

ILV3 = assay: Semi-quantitative RT-PCR expression analysis of ilv3; format: cell-based, Saccharomyces cerevisiae BY4741; settings: sub-lethal dose, 4 hours treatment; actin loading control
Experimental: as §1, §2, §3, §4, §5, §6

ILV2 = assay: Semi-quantitative RT-PCR expression analysis of ilv2; format: cell-based, Saccharomyces cerevisiae BY4741; settings: sub-lethal dose, 4 hours treatment; actin loading control
Experimental: as §1, §2, §3, §4, §5, §6

SMILES	reversal property of the antifungal activity (yeast cells [1])	Minimum Reversal Concentration (MRC), isoleucine (yeast cells [1]; isoleucine added 0-200 μg/ml, compound at constant MIC level) [µg/mL]	Minimum Reversal Concentration (MRC), leucine (yeast cells [1]; leucine added 0-200 μg/ml, compound at constant MIC level) [µg/mL]	Minimum Reversal Concentration (MRC), valine (yeast cells [1]; valine added 0-200 μg/ml, compound at constant MIC level) [µg/mL]	Expression level of ilv5, treated vs untreated cells (ILV5)	MIC (yeast cells [2]) [µg/mL]	Expression level of ilv3, treated vs untreated cells (ILV3)	Expression level of ilv2, treated vs untreated cells (ILV2)
C#CC(=O)Oc1ccc2ccc(=O)oc2c1 [compound A, 2-oxo-2H-chromen-7-yl propiolate]	lacks the reversal property							
CCOC(=O)C#C/C=C/C(=O)OCC [compound B, diethyl-hex-2-en-4-yne-dioate]		25	12.5	12.5	higher than that in the untreated cells	1.5 (≈ 7.65 µM)	unchanged	unchanged
